Legend:
[1] = test system: P-glycoprotein; assay: Reversal of multidrug resistance: rhodamine 123 accumulation in human mdr1 transfected L5178 mouse T-cell lymphoma cells (flow cytometry); assay type: cell-based; conditions: for Vrel = effect related to Verapamil: Verapamil at 10 μg/ml; for R = ratio of fluorescence and activity / R (activity ratio, fluorescence): rhodamine 123; for Multidrug resistance reversing effect (in words): 4 and 40 μg/mL, at higher concentration multiple of fluorescence activity of Verapamil
Method: L5178 mouse T-cell lymphoma cells were transfected with pHa MDR1/A retrovirus, by the method as described by J. L. Weaver [J. L. Weaver, G. Szabó, P. S. Pine, M. M. Gottesmann, S. Goldenberg and A. Aszalos: The effect of ion channel blockers, immunosuppressive agents and other drugs on the activity of the multidrug transporter. Int. […] Mdr-1-expressing cell lines were selected by culturing the transfected cells with 60 ng/mL of colchicine to maintain the expression of the MDR phenotype. L5178 (parent) mouse T-cell lymphoma cells and the human mdr1 transfected subline were cultured in McCoy's 5A medium supplemented with 10% by mass of heath-inactivated horce serum, L-glutamine and antibiotics. Both cell lines were cultured at 37° C. The mouse lymphoma cell line was maintained in a 5% CO2 atmosphere.
The assays were carried out by the method as described by J. Molnár et al. [J. Molnár, I. Mucsi, J. Nacsa, A. Hevér, N. Gyémánt, K. Ugocsai, P. Hegyes, S. Kiessig, D. Gaal, H. Lage and A. Varga: New silicon compounds as resistance modifiers against multidrug-resistant cells. […] The cell density was set to a value of 2×10^6/mL, then the cells were resuspended in a serum-free McCoy's 5A medium and divided in aliquots of 0.5 mL in Eppendorf centrifuge tubes. The tested compounds were added in different concentrations to different volumes (2.0-20.0 μL) of 1.0-10.0 mg/mL stock solutions and the samples were incubated for 10 minutes at room temperature. […] The fluorescence of the cell population was measured with a Beckton Dickinson FACScan flow cytometer. […] The percentage value of the mean fluorescence intensity was calculated for the treated MDR and for the parental cell lines as compared with the values obtained with the untreated cells. The activity ratio (R) was calculated on the basis of the measured fluorescence values by the following equation: […]

[2] = test system: MRC-5 human fibroblast cell lines; assay: Cytotoxicity on MRC-5 human fibroblast cell lines (Alamar Blue/resazurine, 24 h); assay type: cell-based; conditions: MRC-5 cells, 24 hours incubation, 1% DMSO
Method: The toxic effect of the compounds was measured on MRC-5 human fibroblast cell lines in accordance with the method that has been described in the article published by Molnár et al. [L. Molnár, G. M. Keserü, Á. Papp, Z. Lörincz, G. Ambrus és F. Darvas.: A neural network based classification scheme for cytotoxicity predictions: Validation on 30,000 compounds, Bioorg. Med. Chem. Lett. 16(4), 1037-9 (2006)]. The cells were incubated for a cell cycle (24 hours) with solutions of various concentrations prepared from the compounds, in the presence of 1% of DMSO. 3 parallel measurements were carried out with 6 different concentrations. The ratio of the viable cells was determined by reducing the Alamaar Blue (resazurine) reagent that was followed fluorimetrically. The measured materials were not toxic on the given cell line in a concentration of 128 μmol after incubation for one day.
In the following Table 1 the cytotoxicity of some compounds according to the invention is given.

SMILES | melting point [°C] | Survival (%) [c = 128 μM] [2] [%] | Vrel = effect related to Verapamil ([1]; Table 2, 4 μg/ml) | R (activity ratio, fluorescence) ([1]; Table 2, 4 μg/ml) | Vrel = effect related to Verapamil ([1]; Table 2, 40 μg/ml) | R (activity ratio, fluorescence) ([1]; Table 2, 40 μg/ml) | other results
CC1(C)[C@H]2C[C@@H]3C(=O)N[C@@H]3[C@@H]1C2 [Compound 10, (1R,2R,5S,7R)-8,8-Dimethyl-3-Azatricyclo[5.1.1.0^2,5]Nonan-4-One] | 68 to 72 | – | – | – | – | – | –
CC(C)(C)OC(=O)N1C(=O)[C@H]2C[C@H]3C[C@@H]([C@H]21)C3(C)C [Compound 11, (1R ,2R,5S,7R)-N-tert-Butoxycarbonyl-8,8-Dimethyl-3-Azatricyclo[5.1.1.0^2,5]-Nonan-4-One] | 64 to 66 | – | – | – | – | – | –
CCOC(=O)[C@H](Cc1ccccc1)NC(=O)[C@H]1C[C@H]2C[C@@H]([C@H]1NC(=O)OC(C)(C)C)C2(C)C [Compound 17] | – | – | – | – | – | – | Vrel = effect related to Verapamil ([1]; Table 3, 4 μg/ml): 1.58; R = ratio of fluorescence and activity ([1]; Table 3, 4 μg/ml): 23.1; Vrel = effect related to Verapamil ([1]; Table 3, 40 μg/ml): 6.45; R = ratio of fluorescence and activity ([1]; Table 3, 40 μg/ml): 94.24
CCOC(=O)[C@H](Cc1ccccc1)NC(=O)[C@@H]1C[C@@H]2C[C@H]([C@@H]1NC(=O)OC(C)(C)C)C2(C)C [Compound 38] | – | 125.3 | 0.79 | 2.33 | 6.73 | 19.92 | –
CC1(C)[C@@H]2C[C@H](C(=O)O)[C@@H](NC(=O)OCC3c4ccccc4-c4ccccc43)[C@H]1C2 [Compound 41, (1S,2S,3S,5S)-2-(9H-Fluoren-9-yl-Methoxycarbonylamino)-6,6-Dimethylbicyclo[3.1.1]Heptan-3-Carboxylic Acid] | – | – | – | – | – | – | Vrel = effect related to Verapamil ([1]; Table 3, 4 μg/ml): 0.07; R = ratio of fluorescence and activity ([1]; Table 3, 4 μg/ml): 0.86; Vrel = effect related to Verapamil ([1]; Table 3, 40 μg/ml): 0.11; R = ratio of fluorescence and activity ([1]; Table 3, 40 μg/ml): 1.25
CCOC(=O)[C@@H]1C[C@H]2C[C@@H]([C@H]1NC(=S)NCCc1ccc(OC)c(OC)c1)C2(C)C [Compound 51, (1R,2R,3R,5R)-1-(3-Ethoxycarbonyl-6,6-Dimethylbicyclo[3.1.1]Heptan-2-yl)-3-(3,4-Dimethoxyphenyl-Ethyl)-Thiourea] | – | – | 2.70 | 13.29 | 9.96 | 49.02 | Multidrug resistance reversing effect (in words) [1]: significant dose-dependent effect
CCOC(=O)[C@@H]1C[C@@H]2C[C@H]([C@@H]1NC(=S)Nc1cccc(OC)c1)C2(C)C [Compound 54, (1S,2S,3R,5S)-1-(3-Ethoxycarbonyl-6,6-Dimethylbicyclo[3.1.1]Heptan-2-yl) -3-(3-Methoxyphenyl)-Thiourea] | – | – | 0.48 | 2.37 | 5.36 | 26.35 | –
CCOC(=O)[C@H]1C[C@@H]2C[C@H]([C@@H]1NC(=S)Nc1cccc(OC)c1)C2(C)C [Compound 55, (1S,2S,3S,5S)-1-(3-Ethoxycarbonyl-6,6-Dimethylbicyclo[3.1.1]Heptan-2-yl)-3-(3-Methoxyphenyl)-Thiourea] | – | 214.1 | 0.62 | 3.07 | 2.44 | 11.99 | –
CCOC(=O)[C@H]1C[C@@H]2C[C@H]([C@@H]1NC(=O)Nc1ccc(Cl)cc1)C2(C)C [Compound 56, (1S,2S,3S,5S)-1-(3-Ethoxycarbonyl-6,6-Dimethylbicyclo[3.1.1]Heptan-2-yl)-3-(4-Chlorophenyl)-Urea] | – | 116.8 | – | – | – | – | Multidrug resistance reversing effect (in words) [1]: significant dose-dependent effect; Vrel = effect related to Verapamil ([1]; Table 3, 4 μg/ml): 0.14; R = ratio of fluorescence and activity ([1]; Table 3, 4 μg/ml): 1.57; Vrel = effect related to Verapamil ([1]; Table 3, 40 μg/ml): 3.43; R = ratio of fluorescence and activity ([1]; Table 3, 40 μg/ml): 39.39

Now from value to compound, other results behind:

melting point [°C] | SMILES | Survival (%) [c = 128 μM] [2] [%] | Vrel = effect related to Verapamil ([1]; Table 2, 4 μg/ml) | R (activity ratio, fluorescence) ([1]; Table 2, 4 μg/ml) | Vrel = effect related to Verapamil ([1]; Table 2, 40 μg/ml) | R (activity ratio, fluorescence) ([1]; Table 2, 40 μg/ml) | other results
104 to 105 | CNC(=O)[C@H]1[C@@H](NC(=O)OC(C)(C)C)C[C@H]2C[C@H]1C2(C)C [Compound 12, tert-Butyl (1R,2R,3S,5R)-(2-Methylaminocarbonyl-6,6-Dimethylbicyclo[3.1.1]-Hept-3-yl)Carbamate] | – | – | – | – | – | –
270 | CC1(C)[C@H]2C[C@H](C(=O)O)[C@H](N)[C@@H]1C2 [Compound 13, (1R,2R,3S,5R)-2-Amino-6,6-Dimethylbicyclo[3.1.1]Heptan-3-Carboxylic Acid] | – | – | – | – | – | –
160 to 162 | COC(=O)N(C1c2ccccc2-c2ccccc21)[C@H]1[C@@H](C(=O)O)C[C@H]2C[C@@H]1C2(C)C [Compound 18, (1R,2R,3S,5R)-2-(9H-Fluoren-9-yl-Methoxycarbonylamino)-6,6-Dimethylbicyclo[3.1.1]Heptan-3-Carboxylic Acid] | – | – | – | – | – | –
250 to 252 | CC1(C)[C@H]2C[C@@H](C(=O)O)[C@H](N)[C@@H]1C2 [Compound 29, (1R,2R,3R,5R)-2-Amino-6,6-Dimethylbicyclo[3.1.1]Heptan-3-Carboxylic Acid] | – | – | – | – | – | –
155 to 157 | COC(=O)N(C1c2ccccc2-c2ccccc21)[C@H]1[C@H](C(=O)O)C[C@H]2C[C@@H]1C2(C)C [Compound 30, (1R,2R,3R,5R)-2-(9H-Fluoren-9-yl-Methoxycarbonylamino)-6,6-Dimethylbicyclo[3.1.1]Heptan-3-Carboxylic Acid] | – | – | – | – | – | –
132 to 135 | CCOC(=O)[C@H]1C[C@H]2C[C@@H]([C@H]1NC(=S)Nc1cccc(OC)c1)C2(C)C [Compound 44, (1R,2R,3S,5R)-1-(3-Ethoxycarbonyl-6,6-Dimethylbicyclo[3.1.1]Heptan-2-yl)-3-(3-Methoxyphenyl)-Thiourea] | 128.1 | 0.41 | 2.02 | 4.47 | 22 | Multidrug resistance reversing effect (in words) [1]: significant dose-dependent effect
170 to 171 | CCOC(=O)[C@H]1C[C@H]2C[C@@H]([C@H]1NC(=O)Nc1ccc(Cl)cc1)C2(C)C [Compound 45, (1R,2R,3S,5R)-1-(3-Ethoxycarbonyl-6,6-Dimethylbicyclo[3.1.1]Heptan-2-yl) -3-(4-Chlorophenyl)-Urea] | 176.7 | 1.52 | 7.46 | 2.21 | 10.89 | –
125 to 126 | CCOC(=O)[C@H]1C[C@H]2C[C@@H]([C@H]1NC(=S)NCCc1ccc(OC)c(OC)c1)C2(C)C [Compound 46, (1R,2R,3S,5R)-1-(3-Ethoxycarbonyl-6,6-Dimethylbicyclo[3.1.1]Heptan-2-yl) -3-(3,4-Dimethoxyphenylethyl)-Thiourea] | 182.2 | 0.82 | 4.02 | 4.46 | 21.92 | Multidrug resistance reversing effect (in words) [1]: significant dose-dependent effect
202 to 205 | CCOC(=O)[C@H]1C[C@H]2C[C@@H]([C@H]1N(Cc1ccccc1)C(=O)Nc1ccc(Cl)cc1)C2(C)C [Compound 48, (1R,2R,3S,5R)-1-Benzyl-1-(3-Ethoxycarbonyl-6,6-Dimethylbicyclo[3.1.1]Heptan-2-yl)-3-(4-Chlorophenyl)-Urea] | – | – | – | – | – | –
